Source: patent US10344017B2, “Pyrrolcarboxamide derivatives for the inhibition of ERK5” (CANCER RESEARCH TECHNOLOGY LIMITED, priority 2014, dated 2019)
pIC50: −log10 of the molar value.

Biological target: T1, ERK5 (Homo sapiens, UniProt Q13164)
T1 construct: made in house
Experiment: ERK5 IMAP assay (fluorescence polarisation)
Type: biochemical
Details: average (e.g. geometric mean) where more than one data point; read-out: ERK5 IC50

T1 sequence (Q13164 whole entry): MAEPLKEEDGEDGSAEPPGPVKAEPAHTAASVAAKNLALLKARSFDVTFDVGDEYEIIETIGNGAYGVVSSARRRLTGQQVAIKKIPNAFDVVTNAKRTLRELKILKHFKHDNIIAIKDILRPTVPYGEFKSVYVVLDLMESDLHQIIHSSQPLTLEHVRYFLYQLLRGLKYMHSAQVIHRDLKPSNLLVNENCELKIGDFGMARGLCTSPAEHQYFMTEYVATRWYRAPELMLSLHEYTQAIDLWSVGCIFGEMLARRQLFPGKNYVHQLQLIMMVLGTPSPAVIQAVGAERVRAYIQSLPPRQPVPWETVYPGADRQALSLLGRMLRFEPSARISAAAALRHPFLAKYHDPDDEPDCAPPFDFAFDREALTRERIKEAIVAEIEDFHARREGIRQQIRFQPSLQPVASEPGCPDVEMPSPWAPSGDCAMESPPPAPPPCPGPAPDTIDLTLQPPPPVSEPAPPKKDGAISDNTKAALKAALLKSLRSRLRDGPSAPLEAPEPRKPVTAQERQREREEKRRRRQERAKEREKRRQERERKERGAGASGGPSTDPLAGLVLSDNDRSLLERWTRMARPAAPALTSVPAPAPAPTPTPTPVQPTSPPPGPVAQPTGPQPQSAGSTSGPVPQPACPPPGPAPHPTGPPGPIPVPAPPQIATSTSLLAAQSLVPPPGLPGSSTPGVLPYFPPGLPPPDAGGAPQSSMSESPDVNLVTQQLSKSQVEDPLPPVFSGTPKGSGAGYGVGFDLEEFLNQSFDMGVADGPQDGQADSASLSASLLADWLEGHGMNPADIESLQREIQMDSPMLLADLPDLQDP

| Compound | pIC50 |
| --- | --- |
| CC(C)(C)OC(=O)N1CCC(NC(=O)c2cc(C(=O)c3c(F)cccc3Br)c[nH]2)CC1 [Example 196, tert-Butyl 4-(4-(2-bromo-6-fluorobenzoyl)-1H-pyrrole-2-carboxamido)piperidine-1-carboxylate] | 5.57 |
| CCc1cccc(F)c1C(=O)c1c[nH]c(C(=O)Nc2cccnc2)c1 [Example 199, 4-(2-Ethyl-6-fluorobenzoyl)-N-(pyridin-3-yl)-1H-pyrrole-2-carboxamide] | 4.90 |
| O=C(Nc1cccnc1)c1cc(C(=O)c2c(F)cccc2C2CC2)c[nH]1 [Example 202, 4-(2-Cyclopropyl-6-fluorobenzoyl)-N-(pyridin-3-yl)-1H-pyrrole-2-carboxamide] | 4.64 |
| O=C(Nc1cccnc1)c1cc(C(=O)c2c(F)ccc(F)c2F)c[nH]1 [Example 206, N-(Pyridin-3-yl)-4-(2,3,6-trifluorobenzoyl)-1H-pyrrole-2-carboxamide] | 6.40 |
| O=C(Nc1cncnc1)c1cc(C(=O)c2c(F)ccc(F)c2F)c[nH]1 [Example 207, N-(Pyrimidin-5-yl)-4-(2,3,6-trifluorobenzoyl)-1H-pyrrole-2-carboxamide] | 5.97 |
| O=C(Nc1cccnc1)c1cc(C(=O)c2c(F)ccc(Cl)c2F)c[nH]1 [Example 210, 4-(3-Chloro-2,6-difluorobenzoyl)-N-(pyridin-3-yl)-1H-pyrrole-2-carboxamide] | 6.54 |
| O=C(Nc1cncnc1)c1cc(C(=O)c2c(F)ccc(Cl)c2F)c[nH]1 [Example 211, 4-(3-Chloro-2,6-difluorobenzoyl)-N-(pyrimidin-5-yl)-1H-pyrrole-2-carboxamide] | 6.65 |
| O=C(Nc1cccnc1)c1cc(C(=O)c2c(F)ccc(F)c2Cl)c[nH]1 [Example 214, 4-(2-Chloro-3,6-difluorobenzoyl)-N-(pyridin-3-yl)-1H-pyrrole-2-carboxamide] | 6.00 |
| Cc1ccc(F)c(C(=O)c2c[nH]c(C(=O)Nc3cccnc3)c2)c1F [Example 217, 4-(2.6-Difluoro-3-methylbenzoyl)-N-(pyridin-3-yl)-1H-pyrrole-2-carboxamide] | 6.18 |
| Cc1ccc(F)c(C(=O)c2c[nH]c(C(=O)Nc3cncnc3)c2)c1F [Example 218, 4-(2,6-Difluoro-3-methylbenzoyl)-N-(pyrimidin-5-yl)-1H-pyrrole-2-carboxamide] | 6.11 |
| O=C(Nc1cccnc1)c1cc(C(=O)c2c(Cl)ccc(F)c2F)c[nH]1 [Example 221, 4-(6-Chloro-2,3-difluorobenzoyl)-N-(pyridin-3-yl)-1H-pyrrole-2-carboxamide] | 6.15 |
| O=C(Nc1cncnc1)c1cc(C(=O)c2c(Cl)ccc(F)c2F)c[nH]1 [Example 222, 4-(6-Chloro-2,3-difluorobenzoyl)-N-(pyrimidin-5-yl)-1H-pyrrole-2-carboxamide] | 6.26 |
| O=C(Nc1cccnc1)c1cc(C(=O)c2cc(Cl)ccc2F)c[nH]1 [Example 228, 4-(5-Chloro-2-fluorobenzoyl)-N-(pyridin-3-yl)-1H-pyrrole-2-carboxamide] | 5.62 |
| O=C(Nc1cncnc1)c1cc(C(=O)c2cc(Cl)ccc2F)c[nH]1 [Example 229, 4-(5-Chloro-2-fluorobenzoyl)-N-(pyrimidin-5-yl)-1H-pyrrole-2-carboxamide] | 5.69 |
| Cc1ccc(F)c(C(=O)c2c[nH]c(C(=O)Nc3cccnc3)c2)c1 [Example 232, 4-(2-Fluoro-5-methylbenzoyl)-N-(pyridin-3-yl)-1H-pyrrole-2-carboxamide] | 5.39 |
| Cc1ccc(F)c(C(=O)c2c[nH]c(C(=O)Nc3cncnc3)c2)c1 [Example 233, 4-(2-Fluoro-5-methylbenzoyl)-N-(pyrimidin-5-yl)-1H-pyrrole-2-carboxamide] | 5.28 |
| O=C(Nc1cnn(CCO)c1)c1cc(C(=O)c2c(Cl)ccc(Cl)c2F)c[nH]1 [Example 235, 4-(3,6-Dichloro-2-fluorobenzo)-N-(1-(2-hydroxyethyl)-1H-pyrazol-4-yl)-1H-pyrrole-2-carboxamide] | 7.21 |
| O=C(Nc1cnn(C2CCOCC2)c1)c1cc(C(=O)c2c(Cl)ccc(Cl)c2F)c[nH]1 [Example 237, 4-(3,6-Dichloro-2-fluorobenzoyl)-N-(1-(tetrahydro-2H-pyran-4-yl)-1H-pyrazol-4-yl)-1H-pyrrole-2-carboxamide] | 6.83 |
| CS(=O)(=O)CCn1cc(NC(=O)c2cc(C(=O)c3c(Cl)ccc(Cl)c3F)c[nH]2)cn1 [Example 238, 4-(3,6-Dichloro-2-fluorobenzoyl)-N-(1-(2-(methylsulfonyl)ethyl)-1H-pyrazol-4-yl)-1H-pyrrole-2-carboxamide] | 6.93 |
| O=C(Nc1cnn(C2COC2)c1)c1cc(C(=O)c2c(Cl)ccc(Cl)c2F)c[nH]1 [Example 239, 4-(3,6-Dichloro-2-fluorobenzoyl)-N-(1-(oxetan-3-yl)-1H-pyrazol-4-yl)-1H-pyrrole-2-carboxamide] | 7.06 |
| O=C(Nc1cnn(C2CCOC2)c1)c1cc(C(=O)c2c(Cl)ccc(Cl)c2F)c[nH]1 (stereo not drawn) [Example 240, 4-(3,6-Dichloro-2-fluorobenzoyl)-N-(1-(tetrahydrofuran-3-yl)-1H-pyrazol-4-yl)-1H-pyrrole-2-carboxamide] | 6.90 |
| O=C(Nc1cnc(CN2CCOCC2)nc1)c1cc(C(=O)c2c(Cl)ccc(Cl)c2F)c[nH]1 [Example 242, 4-(3,6-Dichloro-2-fluorobenzoyl)-N-(2-(morpholinomethyl)pyrimidin-5-yl)-1H-pyrrole-2-carboxamide] | 7.28 |

Second part, the compound after the results:

| pIC50 | Compound |
| --- | --- |
| 5.91 | O=C(NC1CCOCC1)c1cc(C(=O)c2c(F)cccc2Br)c[nH]1 [Example 198, 4-(2-Bromo-6-fluorobenzoyl)-N-(tetrahydro-2H-pyran-4-yl)-1H-pyrrole-2-carboxamide] |
| 5.30 | CCc1cccc(F)c1C(=O)c1c[nH]c(C(=O)NC2CCNCC2)c1 [Example 200, 4-(2-Ethyl-6-fluorobenzoyl)-N-(piperidin-4-yl)-1H-pyrrole-2-carboxamide] |
| 5.30 | CCc1cccc(F)c1C(=O)c1c[nH]c(C(=O)NC2CCN(C)CC2)c1 [Example 201, 4-(2-Ethyl-6-fluorobenzoyl)-N-(1-methylpiperidin-4-yl)-1H-pyrrole-2-carboxamide] |
| 5.24 | O=C(NC1CCNCC1)c1cc(C(=O)c2c(F)cccc2C2CC2)c[nH]1 [Example 203, 4-(2-Cyclopropyl-6-fluorobenzoyl)-N-(piperidin-4-yl)-1H-pyrrole-2-carboxamide] |
| 5.08 | CN1CCC(NC(=O)c2cc(C(=O)c3c(F)cccc3C3CC3)c[nH]2)CC1 [Example 204, 4-(2-Cyclopropyl-6-fluorobenzoyl)-N-(1-methylpiperidin-4-yl)-1H-pyrrole-2-carboxamide] |
| 5.55 | C#Cc1cccc(F)c1C(=O)c1c[nH]c(C(=O)NC2CCN(C)CC2)c1 [Example 205, 4-(2-Ethynyl-6-fluorobenzoyl)-N-(1-methylpiperidin-4-yl)-1H-pyrrole-2-carboxamide] |
| 6.21 | O=C(NC1CCNCC1)c1cc(C(=O)c2c(F)ccc(F)c2F)c[nH]1 [Example 208, N-(Piperidin-4-yl)-4-(2,3,6-trifluorobenzoyl)-1H-pyrrole-2-carboxamide] |
| 6.24 | CN1CCC(NC(=O)c2cc(C(=O)c3c(F)ccc(F)c3F)c[nH]2)CC1 [Example 209, N-(1-Methylpipendin-4-yl)-4-(2,3,6-trifluorobenzoyl)-1H-pyrrole-2-carboxamide] |
| 6.53 | O=C(NC1CCNCC1)c1cc(C(=O)c2c(F)ccc(Cl)c2F)c[nH]1 [Example 212, 4-(3-Chloro-2,6-difluorobenzoyl)-N-(piperidin-4-yl)-1H-pyrrole-2-carboxamide] |
| 6.16 | O=C(NC1CCNCC1)c1cc(C(=O)c2c(F)ccc(F)c2Cl)c[nH]1 [Example 215, 4-(2-Chloro-3,6-difluorobenzoyl)-N-(piperidin-4-yl)-1H-pyrrole-2-carboxamide] |
| 6.20 | CN1CCC(NC(=O)c2cc(C(=O)c3c(F)ccc(F)c3Cl)c[nH]2)CC1 [Example 216, 4-(2-Chloro-3,6-difluorobenzoyl)-N-(1-methylpiperidin-4-yl)-1H-pyrrole-2-carboxamide] |
| 6.20 | Cc1ccc(F)c(C(=O)c2c[nH]c(C(=O)NC3CCNCC3)c2)c1F [Example 219, 4-(2,6-Difluoro-3-methylbenzoyl)-N-(piperidin-4-yl)-1H-pyrrole-2-carboxamide] |
| 6.40 | Cc1ccc(F)c(C(=O)c2c[nH]c(C(=O)NC3CCN(C)CC3)c2)c1F [Example 220, 4-(2,6-Difluoro-3-methylbenzoyl)-N-(1-methylpiperidin-4-yl)-1H-pyrrole-2-carboxamide] |
| 6.70 | CN1CCC(NC(=O)c2cc(C(=O)c3c(Cl)ccc(F)c3F)c[nH]2)CC1 [Example 223, 4-(6-Chloro-2,3-difluorobenzoyl)-N-(1-methylpiperidin-4-yl)-1H-pyrrole-2-carboxamide] |
| 6.81 | O=C(NC1CCNCC1)c1cc(C(=O)c2c(Cl)ccc(F)c2F)c[nH]1 [Example 224, 4-(6-Chloro-2,3-difluorobenzoyl)-N-(piperidin-4-yl)-1H-pyrrole-2-carboxamide] |
| 5.07 | O=C(NC1CCNCC1)c1cc(C(=O)c2cc(F)ccc2F)c[nH]1 [Example 226, 4-(2,5-Difluorobenzoyl)-N-(piperidin-4-yl)-1H-pyrrole-2-carboxamide] |
| 5.21 | CN1CCC(NC(=O)c2cc(C(=O)c3cc(F)ccc3F)c[nH]2)CC1 [Example 227, 4-(2,5-Difluorobenzoyl)-N-(1-methylpiperidin-4-yl)-1H-pyrrole-2-carboxamide] |
| 5.78 | O=C(NC1CCNCC1)c1cc(C(=O)c2cc(Cl)ccc2F)c[nH]1 [Example 230, 4-(5-Chloro-2-fluorobenzoyl)-N-(piperidin-4-yl)-1H-pyrrole-2-carboxamide] |
| 5.71 | CN1CCC(NC(=O)c2cc(C(=O)c3cc(Cl)ccc3F)c[nH]2)CC1 [Example 231, 4-(5-Chloro-2-fluorobenzoyl)-N-(1-methylpiperidin-4-yl)-1H-pyrrole-2-carboxamide] |
| 5.36 | Cc1ccc(F)c(C(=O)c2c[nH]c(C(=O)NC3CCN(C)CC3)c2)c1 [Example 234, 4-(2-Fluoro-5-methylbenzoyl)-N-(1-methylpiperidin-4-yl)-1H-pyrrole-2-carboxamide] |
